Experimental data from US6479435B1, “Diaryl ethers and processes for their preparation and herbicidal and desiccant compositions containing them” (ISK Americas Incorporated, priority 1997, dated 2002).

Tests used:
Assay type in all cases: in vivo
[1] = tested on: field corn (Zea mays L., var. Dekalb 535, CORN); experiment: Post-emerge greenhouse test, crop damage rating; settings: 14 days after application, scale 0-100
Procedure, shortened: (§1)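 Compounds in acetone with 0.25% v/v non-ionic surfactant were track-sprayed at 187 l/ha over plants at the 2-3 leaf stage, at 63 to 1000 g ai/ha. Pots were bottom-watered. Injury was scored visually 14 days later on a 0-100 scale, where 0 is no damage and 100 is complete plant death.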

[2] = tested on: upland rice (Oryza sp., var.Tebonnet, RICE); experiment: Post-emerge greenhouse test, crop damage rating; settings: 14 days after application, scale 0-100
Procedure, shortened: as §1

[3] = tested on: soybean (Glycine max L., var. Pella 86, SOY); experiment: Pre-emerge greenhouse test, crop damage rating; parameters: key to SOY crop damage rating: 0 = no damage, 100 = complete death of all plants; settings: 14 days after application, rating scale 0-100
Procedure, shortened: (§2)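 Seeds sown in sandy loam mix one day before track-sprayer application of compounds in acetone at 125–1000 g ai/ha (187 l/ha), then surface-watered to incorporate and bottom-watered. Visual rating 14 days after application on a 0–100 scale (0 = no damage, 100 = all plants dead).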

[4] = tested on: field corn (Zea mays L., var. Dekalb 535, CORN); experiment: Pre-emerge greenhouse test, crop damage rating; settings: 14 days after application, rating scale 0-100
Procedure, shortened: as §2

[5] = tested on: upland rice (Oryza sp., var.Tebonnet, RICE); experiment: Pre-emerge greenhouse test, crop damage rating; settings: 14 days after application, rating scale 0-100
Procedure, shortened: as §2

[6] = tested on: soybean (Glycine max L., var. Pella 86, SOY); experiment: Post-emerge greenhouse test, crop damage rating; parameters: key to crop damage rating SOY: 0-100 scale: 0 = no damage, 100 = complete death of all plants; settings: 14 days after application, scale 0-100
Procedure, shortened: as §1

[7] = tested on: common ragweed (Ambrosia artemisiifolia L., AMBEL); experiment: Post-emerge greenhouse herbicide test, phytotoxicity rating; settings: 14 days after application, scale 0-100
Procedure, shortened: as §1

[8] = tested on: large crabgrass (Digitaria sanguinalis, DIGSA); experiment: as above; settings: 14 days after application, scale 0-100
Procedure, shortened: as §1

[9] = tested on: ivyleaf morningglory (Ipomoea hederacea, IPOHE); experiment: as above; settings: 14 days after application, scale 0-100
Procedure, shortened: as §1

[10] = tested on: sicklepod (Cassia obtusifolia, CASOB); experiment: as above; settings: 14 days after application, scale 0-100
Procedure, shortened: as §1

[11] = tested on: velvetleaf (Abutilon theophrasti, ABUTH); experiment: as above; settings: 14 days after application, scale 0-100
Procedure, shortened: as §1

[12] = tested on: Johnsongrass (Sorghum halepense, SORHA); experiment: as above; settings: 14 days after application, scale 0-100
Procedure, shortened: as §1

[13] = tested on: redroot pigweed (Amaranthus retroflexus, AMARE); experiment: as above; settings: 14 days after application, scale 0-100
Procedure, shortened: as §1

[14] = tested on: barnyardgrass (Echinochloa crusgalli, ECHCG); experiment: as above; settings: 14 days after application, scale 0-100
Procedure, shortened: as §1

[15] = tested on: lambsquarters (Chenopodium album, CHEAL); experiment: as above; settings: 14 days after application, scale 0-100
Procedure, shortened: as §1

[16] = tested on: green foxtail (Setaria viridis, SETVI); experiment: as above; settings: 14 days after application, scale 0-100
Procedure, shortened: as §1

[17] = tested on: common ragweed (Ambrosia artemisiifolia L., AMBEL); experiment: Pre-emerge greenhouse herbicide test, phytotoxicity rating; settings: 14 days after application, rating scale 0-100
Procedure, shortened: as §2

[18] = tested on: large crabgrass (Digitaria sanguinalis, DIGSA); experiment: as above; settings: 14 days after application, rating scale 0-100
Procedure, shortened: as §2

[19] = tested on: ivyleaf morningglory (Ipomoea hederacea, IPOHE); experiment: as above; settings: 14 days after application, rating scale 0-100
Procedure, shortened: as §2

[20] = tested on: sicklepod (Cassia obtusifolia, CASOB); experiment: as above; settings: 14 days after application, rating scale 0-100
Procedure, shortened: as §2

[21] = tested on: velvetleaf (Abutilon theophrasti, ABUTH); experiment: as above; settings: 14 days after application, rating scale 0-100
Procedure, shortened: as §2

[22] = tested on: Johnsongrass (Sorghum halepense, SORHA); experiment: as above; settings: 14 days after application, rating scale 0-100
Procedure, shortened: as §2

[23] = tested on: redroot pigweed (Amaranthus retroflexus, AMARE); experiment: as above; settings: 14 days after application, rating scale 0-100
Procedure, shortened: as §2

[24] = tested on: barnyardgrass (Echinochloa crusgalli, ECHCG); experiment: as above; settings: 14 days after application, rating scale 0-100
Procedure, shortened: as §2

[25] = tested on: lambsquarters (Chenopodium album, CHEAL); experiment: as above; settings: 14 days after application, rating scale 0-100
Procedure, shortened: as §2

[26] = tested on: green foxtail (Setaria viridis, SETVI); experiment: as above; settings: 14 days after application, rating scale 0-100
Procedure, shortened: as §2

COc1cc(OC)nc(Oc2cc(-n3c(=O)n4n(c3=S)CCCC4)c(F)cc2Cl)n1 [Compound 8-33]
crop damage rating CORN ([1]; rate 63 g ai/ha): 5
crop damage rating CORN ([1]; rate 500 g ai/ha): 15
crop damage rating RICE ([2]; rate 63 g ai/ha): 0
crop damage rating RICE ([2]; rate 500 g ai/ha): 10
SOY crop damage rating ([3]; Rate 125 g al/ha): 0
SOY crop damage rating ([3]; Rate 500 g al/ha): 30
CORN crop damage rating ([4]; Rate 500 g al/ha): 0
RICE crop damage rating ([5]; Rate 500 g al/ha): 10
crop damage rating SOY ([6]; rate 63 g ai/ha): 55
crop damage rating SOY ([6]; rate 500 g ai/ha): 70
phytotoxicity rating AMBEL ([7]; rate 63 g ai/ha): 60
phytotoxicity rating AMBEL ([7]; rate 500 g ai/ha): 100
phytotoxicity rating DIGSA ([8]; rate 63 g ai/ha): 0
phytotoxicity rating DIGSA ([8]; rate 500 g ai/ha): 50
phytotoxicity rating IPOHE ([9]; rate 63 g ai/ha): 90
phytotoxicity rating IPOHE ([9]; rate 500 g ai/ha): 100
phytotoxicity rating CASOB ([10]; rate 63 g ai/ha): 55
phytotoxicity rating CASOB ([10]; rate 500 g ai/ha): 95
phytotoxicity rating ABUTH ([11]; rate 63 g ai/ha): 100
phytotoxicity rating ABUTH ([11]; rate 500 g ai/ha): 100
phytotoxicity rating SORHA ([12]; rate 63 g ai/ha): 10
phytotoxicity rating SORHA ([12]; rate 500 g ai/ha): 30
phytotoxicity rating AMARE ([13]; rate 63 g ai/ha): 95
phytotoxicity rating AMARE ([13]; rate 500 g ai/ha): 100
phytotoxicity rating ECHCG ([14]; rate 63 g ai/ha): 20
phytotoxicity rating ECHCG ([14]; rate 500 g ai/ha): 40
phytotoxicity rating CHEAL ([15]; rate 63 g ai/ha): 90
phytotoxicity rating CHEAL ([15]; rate 500 g ai/ha): 100
phytotoxicity rating SETVI ([16]; rate 63 g ai/ha): 20
phytotoxicity rating SETVI ([16]; rate 500 g ai/ha): 80
AMBEL phytotoxicity rating ([17]; Rate 125 g al/ha): 0
AMBEL phytotoxicity rating ([17]; Rate 500 g al/ha): 40
DIGSA phytotoxicity rating ([18]; Rate 125 g al/ha): 10
DIGSA phytotoxicity rating ([18]; Rate 500 g al/ha): 90
IPOHE phytotoxicity rating ([19]; Rate 125 g al/ha): 0
IPOHE phytotoxicity rating ([19]; Rate 500 g al/ha): 70
CASOB phytotoxicity rating ([20]; Rate 125 g al/ha): 40
CASOB phytotoxicity rating ([20]; Rate 500 g al/ha): 90
ABUTH phytotoxicity rating ([21]; Rate 125 g al/ha): 100
ABUTH phytotoxicity rating ([21]; Rate 500 g al/ha): 100
SORHA phytotoxicity rating ([22]; Rate 125 g al/ha): 0
SORHA phytotoxicity rating ([22]; Rate 500 g al/ha): 40
AMARE phytotoxicity rating ([23]; Rate 125 g al/ha): 100
AMARE phytotoxicity rating ([23]; Rate 500 g al/ha): 100
ECHCG phytotoxicity rating ([24]; Rate 125 g al/ha): 0
ECHCG phytotoxicity rating ([24]; Rate 500 g al/ha): 20
CHEAL phytotoxicity rating ([25]; Rate 125 g al/ha): 100
CHEAL phytotoxicity rating ([25]; Rate 500 g al/ha): 100
SETVI phytotoxicity rating ([26]; Rate 125 g al/ha): 80
SETVI phytotoxicity rating ([26]; Rate 500 g al/ha): 100

O=c1n(-c2cc(Oc3ccc([N+](=O)[O-])cn3)c(Cl)cc2F)c(=S)n2n1CCCC2 [Compound 8-23]
crop damage rating CORN ([1]; rate 63 g ai/ha): 0
crop damage rating CORN ([1]; rate 500 g ai/ha): 5
crop damage rating RICE ([2]; rate 63 g ai/ha): 0
crop damage rating RICE ([2]; rate 500 g ai/ha): 0
SOY crop damage rating ([3]; Rate 125 g al/ha): 0
SOY crop damage rating ([3]; Rate 500 g al/ha): 20
CORN crop damage rating ([4]; Rate 125 g al/ha): 0
CORN crop damage rating ([4]; Rate 500 g al/ha): 0
RICE crop damage rating ([5]; Rate 125 g al/ha): 0
RICE crop damage rating ([5]; Rate 500 g al/ha): 0
crop damage rating SOY ([6]; rate 63 g ai/ha): 25
crop damage rating SOY ([6]; rate 500 g ai/ha): 60
phytotoxicity rating AMBEL ([7]; rate 63 g ai/ha): 50
phytotoxicity rating AMBEL ([7]; rate 500 g ai/ha): 100
phytotoxicity rating DIGSA ([8]; rate 63 g ai/ha): 0
phytotoxicity rating DIGSA ([8]; rate 500 g ai/ha): 0
phytotoxicity rating IPOHE ([9]; rate 63 g ai/ha): 50
phytotoxicity rating IPOHE ([9]; rate 500 g ai/ha): 100
phytotoxicity rating CASOB ([10]; rate 63 g ai/ha): 70
phytotoxicity rating CASOB ([10]; rate 500 g ai/ha): 100
phytotoxicity rating ABUTH ([11]; rate 63 g ai/ha): 100
phytotoxicity rating ABUTH ([11]; rate 500 g ai/ha): 100
phytotoxicity rating SORHA ([12]; rate 63 g ai/ha): 0
phytotoxicity rating SORHA ([12]; rate 500 g ai/ha): 20
phytotoxicity rating AMARE ([13]; rate 63 g ai/ha): 95
phytotoxicity rating AMARE ([13]; rate 500 g ai/ha): 99
phytotoxicity rating ECHCG ([14]; rate 63 g ai/ha): 0
phytotoxicity rating ECHCG ([14]; rate 500 g ai/ha): 0
phytotoxicity rating CHEAL ([15]; rate 63 g ai/ha): 95
phytotoxicity rating CHEAL ([15]; rate 500 g ai/ha): 99
phytotoxicity rating SETVI ([16]; rate 63 g ai/ha): 0
phytotoxicity rating SETVI ([16]; rate 500 g ai/ha): 20
AMBEL phytotoxicity rating ([17]; Rate 125 g al/ha): 0
AMBEL phytotoxicity rating ([17]; Rate 500 g al/ha): 60
DIGSA phytotoxicity rating ([18]; Rate 125 g al/ha): 0
DIGSA phytotoxicity rating ([18]; Rate 500 g al/ha): 50
IPOHE phytotoxicity rating ([19]; Rate 125 g al/ha): 30
IPOHE phytotoxicity rating ([19]; Rate 500 g al/ha): 60
CASOB phytotoxicity rating ([20]; Rate 125 g al/ha): 0
CASOB phytotoxicity rating ([20]; Rate 500 g al/ha): 50
ABUTH phytotoxicity rating ([21]; Rate 125 g al/ha): 95
ABUTH phytotoxicity rating ([21]; Rate 500 g al/ha): 100
SORHA phytotoxicity rating ([22]; Rate 125 g al/ha): 0
SORHA phytotoxicity rating ([22]; Rate 500 g al/ha): 30
AMARE phytotoxicity rating ([23]; Rate 125 g al/ha): 90
AMARE phytotoxicity rating ([23]; Rate 500 g al/ha): 100
ECHCG phytotoxicity rating ([24]; Rate 125 g al/ha): 0
ECHCG phytotoxicity rating ([24]; Rate 500 g al/ha): 10
CHEAL phytotoxicity rating ([25]; Rate 125 g al/ha): 100
CHEAL phytotoxicity rating ([25]; Rate 500 g al/ha): 100
SETVI phytotoxicity rating ([26]; Rate 125 g al/ha): 10
SETVI phytotoxicity rating ([26]; Rate 500 g al/ha): 100
